Assay [1] has as its system Influenza strain A549 A/WSN/33 (H1N1). Description: Influenza Antiviral Assay. It counts as cell-based, Influenza A virus. To be noted: Influenza A virus, A549, 20 h, neuraminidase fluorescence readout, read-out: % Inhibition.
The target of assay [2] is EN PA (Influenza A virus, UniProt P15659). Description: EN PA FRET Inhibition Assay. The conditions noted are these: read-out: Potency. It counts as biochemical.

For `CCNC(=O)c1nn(CC2(c3ccc4ccccc4c3)CCCC2)cc(O)c1=O` [Compound 828], the EC50 in assay [1] is below 20000 nM. In addition, the IC50 in assay [2] was below 100 nM.

`CC(C)(C)NC(=O)c1nn(CC2(c3ccc4ccccc4c3)CCCC2)cc(O)c1=O` [Compound 829]: the EC50 in assay [1] is below 20000 nM. Also, the IC50 in assay [2] is below 100 nM.

Turning to `CNC(=O)c1nn(CC2(c3cn(C)c4ccccc34)CCCC2)cc(O)c1=O` [Compound 830], in assay [1], the EC50 is above 100000 nM. In assay [2], the IC50 was 100 to 1000 nM.

Regarding `CNC(=O)c1nn(CC2(c3c[nH]c4ccccc34)CCCC2)cc(O)c1=O` [Compound 831], the EC50 in assay [1] was above 100000 nM. The IC50 in assay [2] is 100 to 1000 nM.

Consider `O=C(NCc1ccccc1)c1nn(CC2(c3cncnc3)CCCC2)cc(O)c1=O` [Compound 832], for which the EC50 in assay [1] was above 100000 nM. Also, the IC50 in assay [2] was below 100 nM.

Turning to `Cc1cn(C2(Cn3cc(O)c(=O)c(C(=O)C(C)C)n3)CCCC2)c2ncccc12` [Compound 833], the EC50 in assay [1] is below 20000 nM. Moreover, the IC50 in assay [2] is below 100 nM.

In the case of `CNC(=O)c1nn(CCN(c2ccccc2)c2ccccc2)cc(O)c1=O` [Compound 834], the EC50 in assay [1] is above 100000 nM. Moreover, the IC50 in assay [2] was 100 to 1000 nM.

Regarding `CNC(=O)c1nn(CCn2c3ccccc3c3ccccc32)cc(O)c1=O` [Compound 835], in assay [1], the EC50 is above 100000 nM. Also, the IC50 in assay [2] was 100 to 1000 nM.

For the molecule `O=C1NCC/C=C/Cc2ccc3c(C(=O)C(F)(F)F)cn(c3c2)C2(CCCC2)Cn2cc(O)c(=O)c1n2` [Compound 836], the EC50 in assay [1] is above 100000 nM. The IC50 in assay [2] was at least 1000 nM.

Take `CNC(=O)c1nn(CCC(c2ccccc2)c2ccccc2)cc(O)c1=O` [Compound 837]: the EC50 in assay [1] was above 100000 nM. In assay [2], the IC50 lay within 100 to 1000 nM.

As to `CNC(=O)c1nn(CCN2c3ccccc3C=Cc3ccccc32)cc(O)c1=O` [Compound 838], the EC50 in assay [1] was below 20000 nM. In assay [2], the IC50 is below 100 nM.

Turning to `CNC(=O)c1nn(CCC2c3ccccc3CCc3ccccc32)cc(O)c1=O` [Compound 839], the EC50 in assay [1] is above 100000 nM. In addition, in assay [2], the IC50 is 100 to 1000 nM.

As to `CNC(=O)c1nn(CCN2c3ccccc3CCc3ccccc32)cc(O)c1=O` [Compound 840], the EC50 in assay [1] is above 100000 nM. Also, the IC50 in assay [2] was 100 to 1000 nM.

Turning to `O=C1NCC/C=C/Cc2ccc3ccn(c3c2)C2(CCCC2)Cn2cc(O)c(=O)c1n2` [Compound 841], in assay [1], the EC50 is below 20000 nM. The IC50 in assay [2] lay in the range of 100 to 1000 nM.

Turning to `CNC(=O)c1nn(CCN2c3ccccc3COc3ccccc32)cc(O)c1=O` [Compound 842], the EC50 in assay [1] is above 100000 nM. Moreover, in assay [2], the IC50 was 100 to 1000 nM.

In the case of `CNC(=O)c1nn(CC2(c3ccc4ccccc4n3)CCCC2)cc(O)c1=O` [Compound 843], the EC50 in assay [1] was below 20000 nM. In addition, the IC50 in assay [2] was below 100 nM.

Turning to `CNC(=O)c1nn(CC2(c3ccc4cnccc4c3)CCCC2)cc(O)c1=O` [Compound 844], the EC50 in assay [1] is below 20000 nM. The IC50 in assay [2] is below 100 nM.

Take `CNC(=O)c1nn(CC2(c3ccc4ncccc4c3)CCCC2)cc(O)c1=O` [Compound 845]: the EC50 in assay [1] was below 20000 nM. In addition, the IC50 in assay [2] was below 100 nM.

Regarding `CNC(=O)c1nn(CC2(c3cc(C)c4ncccc4c3)CCCC2)cc(O)c1=O` [Compound 846], the EC50 in assay [1] is below 20000 nM. For the same molecule, the IC50 in assay [2] was below 100 nM.

In the case of `CNC(=O)c1nn(CC2(c3cc(F)c4ncccc4c3)CCCC2)cc(O)c1=O` [Compound 847], the EC50 in assay [1] was above 100000 nM. The IC50 in assay [2] was below 100 nM.

As to `CNC(=O)c1nn(CC2(c3ccc4ccncc4c3)CCCC2)cc(O)c1=O` [Compound 848], the EC50 in assay [1] is above 100000 nM. Further, the IC50 in assay [2] was below 100 nM.

In the case of `CNC(=O)c1nn(CC2(c3ccc4cccnc4c3)CCCC2)cc(O)c1=O` [Compound 849], the EC50 in assay [1] was below 20000 nM. For the same molecule, the IC50 in assay [2] was below 100 nM.

Take `CNC(=O)c1nn(CC2(n3ccc4ccccc43)CCCC2)cc(O)c1=O` [Compound 850]: in assay [1], the EC50 was below 20000 nM. Further, the IC50 in assay [2] was below 100 nM.

On to `CNC(=O)c1nn(CC2(n3cc(C)c4cc(Cl)cnc43)CCCC2)cc(O)c1=O` [Compound 851], for which the EC50 in assay [1] is below 20000 nM. In assay [2], the IC50 was below 100 nM.

On to `CNC(=O)c1nn(CC2(n3cc(C)c4cccnc43)CCCC2)cc(OCc2ccccc2)c1=O` [Compound 852], for which the EC50 in assay [1] was above 100000 nM. Moreover, the IC50 in assay [2] is at least 1000 nM.

Take `CNC(=O)c1nn(CC2(n3ccc4ccc(C)nc43)CCCC2)cc(O)c1=O` [Compound 853]: the EC50 in assay [1] is below 20000 nM. Further, the IC50 in assay [2] was below 100 nM.

`CONC(=O)c1nn(CC2(n3cc(C)c4cccnc43)CCCC2)cc(O)c1=O` [Compound 854]: the EC50 in assay [1] is below 20000 nM. Moreover, the IC50 in assay [2] was below 100 nM.

Regarding `CNC(=O)c1nn(CC2(n3cnc4cncnc43)CCCC2)cc(O)c1=O` [Compound 855], the EC50 in assay [1] was above 100000 nM. Further, the IC50 in assay [2] lay within 100 to 1000 nM.

In the case of `CNC(=O)c1nn(CC2(n3ccc4c(Cl)cccc43)CCCC2)cc(O)c1=O` [Compound 856], in assay [1], the EC50 is below 20000 nM. Also, in assay [2], the IC50 is below 100 nM.

As to `CNC(=O)c1nn(CC2(n3ccc4c(C)cccc43)CCCC2)cc(O)c1=O` [Compound 857], the EC50 in assay [1] is below 20000 nM. Besides, in assay [2], the IC50 was below 100 nM.

Consider `CNC(=O)c1nn(CC2(Cn3cc(C)c4cccnc43)CCCC2)cc(O)c1=O` [Compound 858], for which the EC50 in assay [1] was above 100000 nM. In addition, the IC50 in assay [2] lay in the range of 100 to 1000 nM.

Regarding `CNC(=O)c1nn(CC2(n3ccc4c(F)cccc43)CCCC2)cc(O)c1=O` [Compound 859], the EC50 in assay [1] is below 20000 nM. For the same molecule, the IC50 in assay [2] was below 100 nM.

Regarding `CNC(=O)c1nn(CC2(n3ccc4ccc(Cl)cc43)CCCC2)cc(O)c1=O` [Compound 860], the EC50 in assay [1] was below 20000 nM. In addition, the IC50 in assay [2] is below 100 nM.

In the case of `CNC(=O)c1nn(CC2(n3ccc4ccc(F)cc43)CCCC2)cc(O)c1=O` [Compound 861], in assay [1], the EC50 is below 20000 nM. In addition, in assay [2], the IC50 is below 100 nM.

Regarding `CCn1cc(C2(Cn3cc(O)c(=O)c(C(=O)NC)n3)CCCC2)c2ccccc21` [Compound 862], the EC50 in assay [1] was above 100000 nM. Moreover, the IC50 in assay [2] was in the range of 100 to 1000 nM.

For the molecule `Cc1cn(C2(Cn3cc(O)c(=O)c(C(=O)NC(C)(C)CNC(=O)OC(C)(C)C)n3)CCCC2)c2ncccc12` [Compound 863], the EC50 in assay [1] is below 20000 nM. In addition, in assay [2], the IC50 lay within 100 to 1000 nM.

Turning to `CNC(=O)c1nn(CC2(n3ccc4c(C)ccnc43)CCCC2)cc(O)c1=O` [Compound 864], in assay [1], the EC50 was below 20000 nM. For the same molecule, the IC50 in assay [2] was below 100 nM.

Take `Cc1cn(C2(Cn3cc(O)c(=O)c(C(=O)NCCN)n3)CCCC2)c2ncccc12` [Compound 865]: in assay [1], the EC50 was below 20000 nM. The IC50 in assay [2] is below 100 nM.

As to `CC(C)(CO)NC(=O)c1nn(CC2(n3cc(Cl)c4cccnc43)CCCC2)cc(O)c1=O` [Compound 866], the EC50 in assay [1] is below 20000 nM. For the same molecule, the IC50 in assay [2] is below 100 nM.

For `CC(C)(CO)NC(=O)c1nn(CC2(n3ccc4cccnc43)CCCC2)cc(O)c1=O` [Compound 867], the EC50 in assay [1] was below 20000 nM. The IC50 in assay [2] was below 100 nM.

Regarding `Cc1cn(C2(Cn3cc(O)c(=O)c(C(=O)NC(C)(C)CN)n3)CCCC2)c2ccccc12` [Compound 868], in assay [1], the EC50 was below 20000 nM. Besides, the IC50 in assay [2] is below 100 nM.

`Cc1cn(C2(Cn3cc(O)c(=O)c(C(=O)NCC(C)(C)CNC(=O)OC(C)(C)C)n3)CCCC2)c2ncccc12` [Compound 869]: the EC50 in assay [1] was below 20000 nM. Also, the IC50 in assay [2] lay in the range of 100 to 1000 nM.
